Assay results taken from US20230134986A1, “GLUCOSE TRIPTOLIDE CONJUGATES AND USES THEREOF” (The Johns Hopkins University, priority 2020, published 2023).
Where two headings read alike, the source gives them in different places.

Key:
MCF-7 = MCF-7 proliferation under hypoxia ([3H]-thymidine incorporation); format: cell-based, human; settings: MCF-7, 1% O2, 48 h post treatment
[1] = test system: RPB1 in C342T XPB mutant cell line; assay: RPB1 degradation in C342T XPB knock-in cells, western blot; format: cell-based, human; settings: XPB C342T cells, 0.1 mM triptolide (so in the source); 0.1 μM)
Source text: (§1) Cells and culture conditions. Primary astrocytes (Lonza, Walkersville, Md.; ABM™ Basal Media with AGM™ SingleQuots™ Supplement Pack), fibroblast (ATCC; Fibroblast Basal Medium (ATCC© PCS-201-030™) with Fibroblast Growth Kit-Serum-free (ATCC© PCS-201-040™)), airway epithelial cell (ATCC; Airway Epithelial Cell Basal Medium (ATCC© PCS-300-030™) with Bronchial Epithelial Cell Growth Kit (ATCC© PCS-300-040™)), renal proximal tubule (ATCC; Renal Epithelial Cell Basal Medium (ATCC© PCS-400-030™) with Renal Epithelial Cell Growth Kit (ATCC© PCS-400-040™)), prostate epithelial cell (Lonza; PrEGM™ BulletKit™) and mammary epithelial cell (Lonza; MEBM™ BulletKit™) were kept in a humidified incubator at 37° C. adjusted to 5% CO2. […]
(§2) Western blot analysis. […] Antibody-protein complexes were detected using enhanced chemiluminescence (ECL) immunoblotting detection reagent (EMD Millipore).

PC3 cells = assay: PC3 proliferation under hypoxia or normoxia ([3H]-thymidine incorporation); format: cell-based, human; settings: for IC50: Homo sapiens, PC-3, 48 h, 48 h post treatment, read-out: IC50
Protocol: (§3) Proliferation and viability assays. [^3H]-thymidine incorporation. HEK293T cells (10,000 cells/well) were seeded into 96-well plates then cultured in DMEM plus 10% FBS and 1% penicillin/streptomycin at 37° C. with 5% CO2 overnight. Drugs were added at indicated concentrations and incubation was continued for an additional 24 h. For hypoxia, PC3 (5,000 cells/well) were exposed to 1% O2 (Airgas) in a humidified hypoxia chamber (Billups-Rothenberg) in 37° C. for 48 h prior to drug exposure for 48 h. Treated cells were then pulsed using an aliquot of 1 μCi of [^3H]-thymidine (Perkin Elmer) per well for an additional 6 h. Radiolabelled cells were harvested onto a printed Filtermat A glass fiber filter (Perkin Elmer) using a Tomtec Harvester 96 Mach III M. Betaplate Scint (Perkin Elmer) scintillation fluid was added to radiolabelled filters followed by scintillation counting on Microbeta2 LumiJET Microplate Counter (Perkin Elmer).

[2] = test system: T7115 (C342T XPB knock-in HEK293T cells); assay: Proliferation of XPB C342T knock-in cell line T7115 ([3H]-thymidine incorporation); format: cell-based, human; settings: C342T XPB knock-in versus isogenic WT 293T
Source text: as §1

HepG2 = HepG2 proliferation under hypoxia ([3H]-thymidine incorporation); format: cell-based, human; settings: HepG2, 1% O2, 48 h post treatment
TFIIH = molecular target: T1, TFIIH (Homo sapiens, UniProt P19447); assay: DNA-dependent ATPase activity assay of TFIIH; format: biochemical; settings: 200 nM triptolide
T1 construct: made in house
Protocol: ATPase activity assay. The TFIIH complex was purified and its DNA-dependent ATPase assay was performed as previously described (Titov et al. (2011) Nat. Chem. Biol. 7:182-88). Briefly, a 10-μl reaction mixture contained 20 mM Tris (pH 7.9), 4 mM MgCl2, 1 μM of ATP, 0.1 μCi [^γ-^32P]ATP (3000 Ci/mmol), 100 μg/ml BSA, 100 nM RNA Polymerase II promoter positive control DNA, 1 nM TFIIH and indicated concentrations of triptolide or its analogs. The reactions were started by either addition of TFIIH for 2 hr and stopped by addition of 2 μl of 0.5 M EDTA. An aliquot of 1 μl reaction mixture was spotted on PEI-cellulose (sigma) and the chromatogram was developed with 0.5 M LiCi and 1 M HCOOH. The percent of ATP hydrolysis was quantified using a Typhoon FLA 9500 Variable Imager (GE Healthcare).

MDA MB231 cells = assay: MDA MB231 proliferation under hypoxia ([3H]-thymidine incorporation); format: cell-based, human; settings: MDA MB231, 1% O2, 48 h post treatment
HEK 293T cells = assay: HEK293T cell proliferation assay ([3H]-thymidine incorporation); format: cell-based, human; settings: Homo sapiens; anti-proliferative activity, HEK 293T cells, 24 h drug exposure; read-out: IC50 ± SEM
Source text: Cells and culture conditions. Primary astrocytes (Lonza, Walkersville, Md.; ABM™ Basal Media with AGM™ SingleQuots™ Supplement Pack), fibroblast (ATCC; Fibroblast Basal Medium (ATCC© PCS-201-030™) with Fibroblast Growth Kit-Serum-free (ATCC© PCS-201-040™)), airway epithelial cell (ATCC; Airway Epithelial Cell Basal Medium (ATCC© PCS-300-030™) with Bronchial Epithelial Cell Growth Kit (ATCC© PCS-300-040™)), renal proximal tubule (ATCC; Renal Epithelial Cell Basal Medium (ATCC© PCS-400-030™) with Renal Epithelial Cell Growth Kit (ATCC© PCS-400-040™)), prostate epithelial cell (Lonza; PrEGM™ BulletKit™) and mammary epithelial cell (Lonza; MEBM™ BulletKit™) were kept in a humidified incubator at 37° C. adjusted to 5% CO2. Prostate (PC3, LNCaP, DU-145), breast (MDA-MB-231, MDA-MB-453, SK-BR-3), head and neck (A253, Detroit 562, SCC-25), melanoma (SK-Mel-3, SK-Mel-1, RPMI-7951), pancreatic (CfPAC-1, BxPC3, SW1990), lung (A549, NCI-H1299, NCI-H1437) and liver (SNU-475, SK-HEP-1, SNU-387) cancer cell lines were obtained from ATCC and cultured in their respective media (prostate cells: RPMI-1640, MDA-MB-231: RPMI-1640, MDA-MB-453: Leibovitz's L-15, SK-BR-3: McCoy's 5a, A253: McCoy's 5a, Detroit 562: EMEM, SCC-25: DMEM, SK-Mel-3: McCoy's 5a, SK-Mel-1: EMEM, RPMI-7951: EMEM), CfPAC-1: IMDM, BxPC3: RPMI-1640, SW1990: Leibovitz's L-15), A549: F-12K, NCI-H1299: RPMI-1640, NCI-H1437: RPMI-1640, SNU-475: RPMI-1640, SK-HEP-1: EMEM, SNU-387: RPMI-1640. All media were supplemented with 10% (vol/vol) filtered fetal bovine serum (FBS, Invitrogen, Carlsbad, Calif.), 1% penicillin/streptomycin (Invitrogen) and maintained in a humidified incubator at 37° C. with 5% CO2 except for MDA-MB-453 and SW1990 grown at 37° C. without CO2 control. Wild type (ATCC) and C342T XPB knock-in cells (named T7115) of Human Embryonic Kidney 293T (HEK293T), HeLa (ATCC) were cultured in DMEM (GIBCO) with 10% (vol/vol) filtered fetal bovine serum (FBS, Invitrogen, Carlsbad, Calif.), 1% penicillin/streptomycin (Invitrogen).
as §3

Rpb1 in 293T WT cells = assay: RPB1 degradation in 293T WT cells, western blot; format: cell-based, human; settings: 0.1 mM triptolide (so in the source); 0.1 μM)
Source text: as §1, §2

HeLa = HeLa proliferation under hypoxia ([3H]-thymidine incorporation); format: cell-based, human; settings: 1% O2, 48 h post treatment
[3] = lethal case dosed with 18 mg/m2 F60008; cited from earlier work

Question: For `CC(C)[C@]12O[C@H]1[C@@H]1O[C@]13[C@]1(O[C@H]1C[C@H]1C4=C(CC[C@@]13C)C(=O)OC4)[C@@H]2O` [TPL, (1S,2S,4S,5S,7R,8R,9S,11S,13 S)-8-hydroxy-1-methyl-7-propan-2-yl-3,6,10,16 tetraoxaheptacyclo[11.7.0.02,4.02,9.05,7.09,11.014,18] icos-14(18)-en-17-one, reference compound], which “effect of hypoxia on anti-proliferative effect” value (“effect of hypoxia” below) (MCF-7) is on record?
Answer: modest anti-proliferative effect

Question: What about the Rpb1 level [1] of the same molecule?
Answer: Rpb1 levels resemble DMSO control

Question: And the IC50 (PC3 cells; PC3, hypoxic conditions (1% O2))?
Answer: 1.5 nM

Question: What about the IC50 (PC3 cells; PC3, normoxic conditions (20% O2)) of the same molecule?
Answer: 4.5 nM

Question: And the “fold enhancement of anti-proliferative effect during hypoxia” value (PC3 cells; PC3, hypoxia versus normoxia)?
Answer: three-fold

Question: And the “sensitivity of T7115 mutant line (proliferation)” value [2]?
Answer: resistant

Question: And the “effect of hypoxia” value (HepG2)?
Answer: showed resistance upon hypoxia

Question: What about the “inhibition of ATPase activity of TFIIH” value (TFIIH) of the same molecule?
Answer: effectively suppresses activity

Question: And the “inhibition of ATPase activity of TFIIH” value (TFIIH; listed as triptolide)?
Answer: nearly completely inhibited

Question: What about the “effect of hypoxia” value (MDA MB231 cells) of the same molecule?
Answer: modest anti-proliferative effect

Question: And the IC50 (HEK 293T cells)?
Answer: 5.6 nM

Question: And the “degradation of Rpb1” value (Rpb1 in 293T WT cells)?
Answer: leads to the degradation of the Rpb1 subunit

Question: What about the “effect of hypoxia” value (HeLa) of the same molecule?
Answer: modest anti-proliferative effect

Question: And the Maximum serum levels [3]?
Answer: 58.5 ng/mL

Question: And the “Maximum serum levels (molar)” value [3]?
Answer: ~0.16 mM
